Data on one substance can be found in PMC5908784, “Extracellular loops 2 and 3 of the calcitonin receptor selectively modify agonist binding and efficacy” (Biochemical Pharmacology, 2018).

Where a chain is given by its changes, count along the chain named. Where no end group is shown, it is not given here.

Experiment in all cases: Homologous whole cell competition binding
Holding throughout (settings): homologous competition of 125I-sCT(8-32), whole cells, mean ± S.E.M., SEM

The target in test [1] is T1, hCTR W361A (Homo sapiens, UniProt P30988, W361A).
T1 construct: expressed in transfected cells
T1 sequence (P30988 25-474 W361A): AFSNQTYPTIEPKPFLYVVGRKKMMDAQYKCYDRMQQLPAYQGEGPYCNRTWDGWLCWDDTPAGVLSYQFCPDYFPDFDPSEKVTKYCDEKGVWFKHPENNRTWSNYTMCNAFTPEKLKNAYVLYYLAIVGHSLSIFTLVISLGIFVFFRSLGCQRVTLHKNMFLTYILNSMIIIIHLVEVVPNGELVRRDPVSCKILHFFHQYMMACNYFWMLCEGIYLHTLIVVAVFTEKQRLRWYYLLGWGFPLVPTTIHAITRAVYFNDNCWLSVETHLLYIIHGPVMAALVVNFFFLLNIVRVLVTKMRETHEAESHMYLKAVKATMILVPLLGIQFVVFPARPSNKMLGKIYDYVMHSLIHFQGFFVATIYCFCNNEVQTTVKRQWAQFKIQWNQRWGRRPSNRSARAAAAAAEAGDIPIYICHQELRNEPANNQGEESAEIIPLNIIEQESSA
The procedure, abridged: (§1)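 Values are pKi, derived from IC50 of unlabelled sCT(8-32) displacing ^125I-sCT(8-32) (25–100 pM) from whole cells after overnight incubation at 4 °C. Specific binding was scaled between tracer-only total and 1 μM cold-peptide background.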

Test [2] has as its target T2, hCTR G369A (Homo sapiens, UniProt P30988, G369A).
T2 construct: c-Myc (N); expressed in transfected cells
T2 sequence (P30988 25-474 G369A): T1 sequence (P30988 25-474 W361A) with A337W, G345A
The procedure, abridged: as §1

Test [3] addresses T3, hCTR R362A (Homo sapiens, UniProt P30988, R362A).
T3 construct: expressed in transfected cells
T3 sequence (P30988 25-474 R362A): T1 sequence (P30988 25-474 W361A) with A337W, R338A
The method in brief:
as §1

The target in test [4] is T4, hCTR L297A (Homo sapiens, UniProt P30988, L297A).
T4 construct: c-Myc (N); expressed in transfected cells
T4 sequence (P30988 25-474 L297A): T1 sequence (P30988 25-474 W361A) with L273A, A337W
The method in brief: as §1

In the case of “VLGKLSQELHKLQTYPRTNTGSGTP-NH2 [sCT(8-32)]”, the Ki in test [1] is 0.282 nM; in test [2] it was 0.229 nM; in test [3], 0.219 nM; in test [4], 0.0631 nM.

In general, Ki refers to the equilibrium dissociation constant of an inhibitor or competing ligand from its target. A higher Ki goes with lower affinity.
